Active and inactive are the calls of the source.
How the values were obtained:
[1] = molecular target: T1, Carboxy-terminal domain RNA polymerase II polypeptide A small phosphatase 1 (Homo sapiens, UniProt Q9GZU7); assay: inhibitors of CTDSP1, concentration-response testing, biochemical assay, absorbance-based, actives from ultra-high-throughput screening (AID 540297); assay type: functional
T1 sequence (Q9GZU7 whole entry): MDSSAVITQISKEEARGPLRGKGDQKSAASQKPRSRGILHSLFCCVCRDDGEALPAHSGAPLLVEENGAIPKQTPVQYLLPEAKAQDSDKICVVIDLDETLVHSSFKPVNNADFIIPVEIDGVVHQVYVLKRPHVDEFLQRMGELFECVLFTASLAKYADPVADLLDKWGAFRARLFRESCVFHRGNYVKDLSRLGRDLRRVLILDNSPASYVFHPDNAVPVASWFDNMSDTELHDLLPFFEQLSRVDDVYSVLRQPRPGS

[2] = molecular target: ADP-ribosylation factor GTPase-activating protein 1 (Rattus norvegicus, UniProt Q62848); assay: Fluorescence polarization-based biochemical high throughput dose response screening assay to identify inhibitors of ADP-ribosylation factor GTPase activating protein 1 (ARFGAP1).; assay type: functional
[3] = molecular target: T2, Mitochondrial peptide methionine sulfoxide reductase (Bos taurus, UniProt P54149); assay: Absorbance-based biochemical high throughput dose response assay for activators of Methionine sulfoxide reductase A (MsrA).; assay type: functional
[4] = ARNT/TACC3 interaction disruptors, potency, confirmation, biochemical, AlphaScreen, cherry-picked samples (AID 651703); assay type: functional, Homo sapiens;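 note: His-tagged ARNT PAS-B domain paired with GST-TACC3 E629A dimer coactivator fragment; potency of inhibitors that break up the complex and lower AlphaScreen signal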
[5] = molecular target: Potassium voltage-gated channel subfamily KQT member 2 (Rattus norvegicus, UniProt O88943); assay: KCNQ2 potassium channel inhibitors, dose response, cell-based, automated electrophysiology, set II, rat KCNQ2 (AID 588637); assay type: functional
[6] = molecular target: DNA (cytosine-5)-methyltransferase 1 (Homo sapiens, UniProt P26358); assay: DNMT1 methyltransferase inhibitors, confirmation, biochemical, fluorescent molecular beacon (AID 602386); assay type: functional
[7] = HeLa cell cytotoxicity, dose response, cytotoxicity control for MgcRacGAP inhibitor project (AID 624300); assay type: functional
[8] = molecular target: T3, Rac GTPase-activating protein 1 (Homo sapiens, UniProt Q9H0H5); assay: MgcRacGAP GTPase-activating activity inhibitors, confirmation, biochemical, ADP Hunter fluorescence, primary and confirmatory (AID 624330); assay type: functional
T3 sequence (Q9H0H5 whole entry): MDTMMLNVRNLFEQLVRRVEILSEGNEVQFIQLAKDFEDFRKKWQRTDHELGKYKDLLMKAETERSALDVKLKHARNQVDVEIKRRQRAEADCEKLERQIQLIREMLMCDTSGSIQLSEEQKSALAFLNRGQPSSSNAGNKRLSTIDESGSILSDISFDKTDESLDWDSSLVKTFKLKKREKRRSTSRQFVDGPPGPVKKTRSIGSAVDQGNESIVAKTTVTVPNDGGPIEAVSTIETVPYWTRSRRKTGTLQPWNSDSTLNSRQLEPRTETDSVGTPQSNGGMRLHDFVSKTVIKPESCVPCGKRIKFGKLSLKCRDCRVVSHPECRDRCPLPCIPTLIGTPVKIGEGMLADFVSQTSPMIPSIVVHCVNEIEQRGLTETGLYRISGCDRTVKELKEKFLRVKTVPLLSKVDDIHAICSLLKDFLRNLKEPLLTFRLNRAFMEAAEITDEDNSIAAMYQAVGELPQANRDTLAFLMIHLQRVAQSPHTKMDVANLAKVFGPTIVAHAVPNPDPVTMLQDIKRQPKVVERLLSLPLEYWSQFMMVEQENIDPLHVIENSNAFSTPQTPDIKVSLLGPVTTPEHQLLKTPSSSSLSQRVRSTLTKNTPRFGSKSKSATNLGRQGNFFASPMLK

[9] = molecular target: T2, Mitochondrial peptide methionine sulfoxide reductase; assay type: functional
[10] = Shn3 3'UTR reporter inhibitors, dose response, cell-based, Clone20 osteoblasts, firefly luciferase, cherry-picked (AID 624132); assay type: functional;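 note: firefly luciferase luminescence from reporter carrying the Shn3 3'UTR in osteoblasts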
Protein Wnt-3a = Protein Wnt-3a (Mus musculus, UniProt P27467); assay: Wnt3a-driven reporter signaling inhibition, dose response, selectivity assay for Gli-SUFU antagonist project, Wnt-LIGHT cells, luminescence (AID 651570); assay type: functional; conditions: read-out: IC50_Mean;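 note: Wnt-LIGHT reporter cells stimulated with conditioned medium from Wnt3a-producing cells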
[11] = HepG2 cell cytotoxicity, dose response, cytotoxicity control for Shn3 inhibitor project, CellTiter-Glo, cherry-picked (AID 624134); assay type: functional, cell-based
Cytochrome P450 2D6 = Cytochrome P450 2D6 (Homo sapiens, UniProt P10635);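 note: CYP2D6 member of a cytochrome P450 panel assay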
[12] = control 3'UTR Renilla luciferase suppression, dose response, counter-screen for Shn3 inhibitor project, cell-based, Clone20-Shn3RL, cherry-picked (AID 624133); assay type: functional
[13] = molecular target: Hepatocyte nuclear factor 4-alpha (Homo sapiens, UniProt P41235); assay type: functional, cell-based;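 note: biochemical luminescence-based dose-response counterscreen measuring inhibition of HNF4 dimerization, run alongside a screen for blockers of ABHD5–perilipin-5 interaction; split luciferase complementation of HNF4 fusion proteins in cell lysate measuring dimerization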
[14] = molecular target: Neurotensin receptor type 1 (Homo sapiens, UniProt P30989); assay type: functional;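 note: Image-based confirmatory dose-response assay measuring agonist activity at NTR1; NTR1-expressing U2OS osteosarcoma cells imaged for beta-arrestin GFP spot formation; agonist potency where compounds increase beta-arrestin recruitment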
[15] = molecular target: T4, Ubiquitin-conjugating enzyme E2 N (Homo sapiens, UniProt P61088); assay type: functional;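 note: Dose-response confirmation in a TR-FRET assay detecting UBC13-driven polyubiquitin chain formation, inhibition measured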
T4 sequence (P61088 whole entry): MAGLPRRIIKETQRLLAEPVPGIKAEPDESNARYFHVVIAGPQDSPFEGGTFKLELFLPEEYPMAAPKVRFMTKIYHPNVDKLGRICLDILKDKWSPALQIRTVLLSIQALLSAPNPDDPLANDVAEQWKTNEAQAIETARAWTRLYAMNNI

Melanocortin receptor 4 = Melanocortin receptor 4 (Homo sapiens, UniProt P32245); assay type: functional, cell-based;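 note: Cell-based assay with luminescence read-out, confirmatory dose-response testing for agonist activity of biased ligands at MC4R; human U2OS cells with tagged receptor and beta-arrestin; potency of agonists that increase receptor coupling to beta-arrestin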
[16] = cytotoxicity toward NIH3T3 fibroblasts, dose response, counter-screen, cell-based, ATP luminescence, mouse fibroblasts (AID 2010); assay type: functional;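 note: cells exposed to compound for about 90 hours before reading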
[17] = inhibitors of intracellular T. cruzi replication, confirmation, NIH3T3 host cells, beta-gal luminescence (AID 2044); assay type: functional, cell-based;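 note: intracellular parasites grown in NIH/3T3 mouse fibroblasts as host cells; luminescent beta-galactosidase reporter signal from transgenic T. cruzi replicating inside host cells; inhibitors lower the luminescence signal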
[18] = AlphaScreen signal interference compounds, dose response, artefact control for ARNT-TACC3 interaction inhibitor project, biochemical, luminescence, cherry-pick (AID 651705); assay type: functional;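 note: AlphaScreen bead proximity signal that flags compounds interfering with the detection technology; potency reflects signal decrease which marks the compound as an assay artifact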
[19] = molecular target: T5, Sentrin-specific protease 1 (Homo sapiens, UniProt Q9P0U3); assay: potency of human SENP1 inhibitors, dose response, biochemical, kinetic FRET (AID 651697); assay type: functional; conditions: read-out: IC50_Mean
[20] = molecular target: T5, Sentrin-specific protease 1; assay: Dose response confirmation of small molecule inhibitors of the catalytic domain of the SUMO protease, SENP1 in a FRET assay.; assay type: functional; conditions: read-out: IC50_Mean
[21] = molecular target: ATP-dependent translocase ABCB1 (Homo sapiens, UniProt P08183); assay: ABCB1 efflux pump inhibitor potency, dose response, Jurkat-DNR cells, JC-1, flow cytometry (AID 1689); assay type: functional
Streptokinase A = molecular target: T6, Streptokinase A (Streptococcus pyogenes serotype M1, UniProt P10520); assay: S. pyogenes streptokinase expression inhibitors, potency, dose response, plasminogen activation absorbance, OD405 (AID 1914); assay type: functional, Streptococcus pyogenes M1 GAS;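 note: secreted streptokinase activity via plasminogen activation per viability signal from cell pellet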
T6 sequence (P10520 whole entry): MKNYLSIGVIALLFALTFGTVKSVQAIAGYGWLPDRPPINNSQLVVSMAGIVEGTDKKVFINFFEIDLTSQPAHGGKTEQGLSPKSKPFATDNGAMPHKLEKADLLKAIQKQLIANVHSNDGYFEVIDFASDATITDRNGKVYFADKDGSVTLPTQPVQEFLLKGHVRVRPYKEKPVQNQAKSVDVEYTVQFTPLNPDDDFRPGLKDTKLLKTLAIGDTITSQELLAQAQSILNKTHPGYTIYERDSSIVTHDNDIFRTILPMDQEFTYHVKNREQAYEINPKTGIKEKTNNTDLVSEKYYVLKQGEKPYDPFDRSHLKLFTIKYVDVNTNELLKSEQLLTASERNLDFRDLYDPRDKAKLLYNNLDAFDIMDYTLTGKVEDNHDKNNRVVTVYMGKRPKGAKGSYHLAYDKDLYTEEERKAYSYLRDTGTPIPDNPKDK

Streptococcus = assay: Group A Streptococcus viability loss, dose response, counter-screen for streptokinase expression inhibitor project, luminescence, BacTiterGlo (AID 1915); assay type: functional, organism-based;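 note: potency for reduction of bacterial viability or growth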
[22] = molecular target: Photoreceptor-specific nuclear receptor (Homo sapiens, UniProt Q9Y5X4); assay type: functional, cell-based;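 note: CHO-S cells with Gal4-NCOR and VP16-NR2E3 two-hybrid luciferase reporter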
[23] = test system: Streptococcus sp. 'group A'; assay: growth inhibition of control SK(-) GAS strain, dose response, counter-screen for streptokinase expression inhibitor project, luminescence, kanamycin, BacTiterGlo, confirmation (AID 1900); assay type: functional, organism-based

T5 sequence (Q9P0U3 whole entry, the tested form may be a part): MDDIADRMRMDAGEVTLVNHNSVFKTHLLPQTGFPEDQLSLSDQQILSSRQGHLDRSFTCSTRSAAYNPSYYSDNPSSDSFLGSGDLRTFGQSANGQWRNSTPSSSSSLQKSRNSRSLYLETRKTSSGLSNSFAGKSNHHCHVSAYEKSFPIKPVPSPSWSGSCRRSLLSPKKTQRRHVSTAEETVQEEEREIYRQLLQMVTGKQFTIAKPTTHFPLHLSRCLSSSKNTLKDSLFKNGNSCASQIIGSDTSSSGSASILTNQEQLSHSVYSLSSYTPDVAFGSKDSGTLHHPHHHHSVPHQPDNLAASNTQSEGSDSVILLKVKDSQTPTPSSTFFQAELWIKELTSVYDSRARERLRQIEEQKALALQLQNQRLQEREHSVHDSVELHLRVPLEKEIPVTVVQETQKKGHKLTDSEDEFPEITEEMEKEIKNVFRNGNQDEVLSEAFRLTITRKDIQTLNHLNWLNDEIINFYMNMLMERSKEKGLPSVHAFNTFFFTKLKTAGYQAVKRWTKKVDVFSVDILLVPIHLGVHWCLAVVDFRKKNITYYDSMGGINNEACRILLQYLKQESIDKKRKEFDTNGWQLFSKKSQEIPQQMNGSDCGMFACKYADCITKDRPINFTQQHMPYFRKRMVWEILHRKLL
T2 sequence (P54149 whole entry, the tested form may be a part): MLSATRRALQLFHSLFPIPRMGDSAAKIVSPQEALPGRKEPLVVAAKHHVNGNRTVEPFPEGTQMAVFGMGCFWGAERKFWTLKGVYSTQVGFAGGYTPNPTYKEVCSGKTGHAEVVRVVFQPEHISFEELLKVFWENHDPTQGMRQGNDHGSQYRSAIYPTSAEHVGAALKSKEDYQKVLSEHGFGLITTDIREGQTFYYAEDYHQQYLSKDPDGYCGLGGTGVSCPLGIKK
Chain of ADP-ribosylation factor GTPase-activating protein 1 (Q62848 whole entry): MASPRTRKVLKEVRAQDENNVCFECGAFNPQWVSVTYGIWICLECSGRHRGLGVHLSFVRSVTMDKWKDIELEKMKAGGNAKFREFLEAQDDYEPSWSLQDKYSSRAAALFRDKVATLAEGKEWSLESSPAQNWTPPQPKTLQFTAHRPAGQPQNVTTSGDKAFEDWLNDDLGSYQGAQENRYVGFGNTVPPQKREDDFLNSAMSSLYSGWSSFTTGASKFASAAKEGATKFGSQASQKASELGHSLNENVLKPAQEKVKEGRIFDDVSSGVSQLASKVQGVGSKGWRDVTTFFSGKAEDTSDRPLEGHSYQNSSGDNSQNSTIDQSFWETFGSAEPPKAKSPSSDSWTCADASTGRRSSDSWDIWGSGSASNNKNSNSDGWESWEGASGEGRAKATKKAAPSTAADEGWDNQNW
Chain of Cytochrome P450 2D6 (P10635 whole entry): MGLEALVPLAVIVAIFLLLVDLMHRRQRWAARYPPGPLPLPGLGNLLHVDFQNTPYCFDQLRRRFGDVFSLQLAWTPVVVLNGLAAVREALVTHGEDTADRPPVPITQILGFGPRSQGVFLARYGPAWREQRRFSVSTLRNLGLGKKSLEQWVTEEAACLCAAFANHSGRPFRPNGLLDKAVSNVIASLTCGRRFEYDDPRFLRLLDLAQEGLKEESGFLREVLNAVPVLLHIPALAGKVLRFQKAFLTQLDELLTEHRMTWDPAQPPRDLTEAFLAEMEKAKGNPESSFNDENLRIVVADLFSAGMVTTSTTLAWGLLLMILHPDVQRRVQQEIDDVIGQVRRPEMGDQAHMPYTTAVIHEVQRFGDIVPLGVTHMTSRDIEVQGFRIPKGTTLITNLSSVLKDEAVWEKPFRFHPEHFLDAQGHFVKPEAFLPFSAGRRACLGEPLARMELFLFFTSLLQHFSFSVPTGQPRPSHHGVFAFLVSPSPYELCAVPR
Chain of Photoreceptor-specific nuclear receptor (Q9Y5X4 whole entry, the tested form may be a part): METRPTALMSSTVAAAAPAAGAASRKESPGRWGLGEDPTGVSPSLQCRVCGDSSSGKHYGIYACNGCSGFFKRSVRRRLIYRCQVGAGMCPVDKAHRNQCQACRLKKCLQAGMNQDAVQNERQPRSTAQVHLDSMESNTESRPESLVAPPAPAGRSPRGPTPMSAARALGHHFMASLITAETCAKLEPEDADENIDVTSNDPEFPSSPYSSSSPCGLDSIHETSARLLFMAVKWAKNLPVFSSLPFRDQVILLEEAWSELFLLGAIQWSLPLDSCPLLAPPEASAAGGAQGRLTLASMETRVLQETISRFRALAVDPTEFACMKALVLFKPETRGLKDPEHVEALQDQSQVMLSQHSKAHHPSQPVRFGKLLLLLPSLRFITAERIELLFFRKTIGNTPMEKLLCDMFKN
Chain of DNA (cytosine-5)-methyltransferase 1 (P26358 whole entry): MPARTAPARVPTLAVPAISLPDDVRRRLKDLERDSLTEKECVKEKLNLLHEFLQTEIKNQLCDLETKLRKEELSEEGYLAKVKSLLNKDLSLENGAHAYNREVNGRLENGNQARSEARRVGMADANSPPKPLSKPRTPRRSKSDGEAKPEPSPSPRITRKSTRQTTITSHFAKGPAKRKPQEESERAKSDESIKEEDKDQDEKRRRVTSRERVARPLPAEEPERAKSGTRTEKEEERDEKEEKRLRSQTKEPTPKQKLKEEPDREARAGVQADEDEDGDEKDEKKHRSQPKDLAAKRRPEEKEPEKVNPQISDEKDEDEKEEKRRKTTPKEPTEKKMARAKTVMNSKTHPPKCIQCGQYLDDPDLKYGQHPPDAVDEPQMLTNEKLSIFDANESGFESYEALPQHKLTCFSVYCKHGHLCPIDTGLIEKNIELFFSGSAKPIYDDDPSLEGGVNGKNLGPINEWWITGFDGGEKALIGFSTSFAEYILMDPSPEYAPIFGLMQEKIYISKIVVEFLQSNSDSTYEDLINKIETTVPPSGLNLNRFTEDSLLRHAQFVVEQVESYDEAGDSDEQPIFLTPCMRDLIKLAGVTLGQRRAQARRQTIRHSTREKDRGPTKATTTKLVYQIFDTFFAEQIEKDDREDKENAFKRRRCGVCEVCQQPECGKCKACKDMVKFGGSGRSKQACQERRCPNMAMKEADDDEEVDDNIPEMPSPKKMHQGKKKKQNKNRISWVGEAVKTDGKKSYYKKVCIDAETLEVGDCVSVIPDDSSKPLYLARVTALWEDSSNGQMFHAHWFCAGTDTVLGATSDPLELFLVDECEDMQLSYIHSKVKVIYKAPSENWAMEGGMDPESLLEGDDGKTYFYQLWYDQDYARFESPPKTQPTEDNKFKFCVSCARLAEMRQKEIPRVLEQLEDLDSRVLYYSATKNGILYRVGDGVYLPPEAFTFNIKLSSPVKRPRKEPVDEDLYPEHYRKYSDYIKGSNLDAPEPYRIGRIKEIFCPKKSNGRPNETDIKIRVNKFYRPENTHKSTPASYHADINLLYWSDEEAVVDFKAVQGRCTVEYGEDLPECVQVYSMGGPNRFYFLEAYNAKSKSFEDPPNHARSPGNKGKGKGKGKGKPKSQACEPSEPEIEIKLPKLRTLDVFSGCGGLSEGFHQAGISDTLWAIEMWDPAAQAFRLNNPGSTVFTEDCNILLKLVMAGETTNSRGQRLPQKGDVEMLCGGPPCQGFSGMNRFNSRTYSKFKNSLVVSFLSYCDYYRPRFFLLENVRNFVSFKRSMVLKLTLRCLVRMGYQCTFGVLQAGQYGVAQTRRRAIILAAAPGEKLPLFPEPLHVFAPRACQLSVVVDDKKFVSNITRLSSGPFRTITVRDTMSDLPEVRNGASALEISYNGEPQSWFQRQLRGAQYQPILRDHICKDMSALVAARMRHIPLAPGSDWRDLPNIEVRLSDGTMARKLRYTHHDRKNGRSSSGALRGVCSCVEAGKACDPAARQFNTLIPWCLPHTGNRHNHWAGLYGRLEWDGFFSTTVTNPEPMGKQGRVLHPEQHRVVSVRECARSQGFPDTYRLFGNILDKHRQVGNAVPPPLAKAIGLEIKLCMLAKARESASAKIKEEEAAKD
Chain of Melanocortin receptor 4 (P32245 whole entry): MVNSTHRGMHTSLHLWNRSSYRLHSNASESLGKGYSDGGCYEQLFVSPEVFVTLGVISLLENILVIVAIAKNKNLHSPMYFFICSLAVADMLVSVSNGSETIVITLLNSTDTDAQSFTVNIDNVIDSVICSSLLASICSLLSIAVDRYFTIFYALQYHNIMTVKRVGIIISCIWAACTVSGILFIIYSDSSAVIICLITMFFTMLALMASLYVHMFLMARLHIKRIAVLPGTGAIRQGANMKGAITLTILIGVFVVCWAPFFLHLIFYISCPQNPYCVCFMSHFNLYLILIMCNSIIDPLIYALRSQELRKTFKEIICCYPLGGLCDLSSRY
Chain of Potassium voltage-gated channel subfamily KQT member 2 (O88943 whole entry): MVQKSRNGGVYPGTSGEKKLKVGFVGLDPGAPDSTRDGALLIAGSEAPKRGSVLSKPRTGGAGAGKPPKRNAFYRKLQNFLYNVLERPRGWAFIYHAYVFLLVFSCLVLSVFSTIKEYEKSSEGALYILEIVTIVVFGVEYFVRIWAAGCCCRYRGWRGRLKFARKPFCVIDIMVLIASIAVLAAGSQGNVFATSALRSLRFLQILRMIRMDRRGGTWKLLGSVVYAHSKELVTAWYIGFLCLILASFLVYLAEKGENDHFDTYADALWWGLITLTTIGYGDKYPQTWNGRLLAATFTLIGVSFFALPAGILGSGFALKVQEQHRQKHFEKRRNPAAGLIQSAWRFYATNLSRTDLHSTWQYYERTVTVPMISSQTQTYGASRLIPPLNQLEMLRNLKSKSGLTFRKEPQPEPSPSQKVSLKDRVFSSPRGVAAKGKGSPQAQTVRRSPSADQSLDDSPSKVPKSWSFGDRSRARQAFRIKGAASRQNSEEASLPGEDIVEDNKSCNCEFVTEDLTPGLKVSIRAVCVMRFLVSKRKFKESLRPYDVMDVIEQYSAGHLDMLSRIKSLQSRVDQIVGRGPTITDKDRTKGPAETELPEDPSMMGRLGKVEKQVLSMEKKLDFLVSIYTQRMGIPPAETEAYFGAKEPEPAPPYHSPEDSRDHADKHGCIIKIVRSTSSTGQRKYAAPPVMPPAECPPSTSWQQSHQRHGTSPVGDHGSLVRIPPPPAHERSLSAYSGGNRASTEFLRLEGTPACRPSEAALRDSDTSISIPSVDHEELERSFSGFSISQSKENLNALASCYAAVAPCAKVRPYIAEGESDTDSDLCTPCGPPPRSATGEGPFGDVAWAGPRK

O=C(N/N=C/c1sc(=O)n(Cc2ccc(Br)cc2)c1Cl)c1ccco1
IC50 [1]: 3.55 µM (active)
IC50 [2]: 34.3 µM (inactive)

CN(CC(=O)Nc1ccccc1N1CCOCC1)S(=O)(=O)c1ccc(Cl)cc1
EC50 [3]: > 104 µM (inactive)

O=C1c2cccc3cccc(c23)C(=O)N1CCCCCc1nnc(S)o1
AC50 [4]: 102 µM (active)

CC(C)(C)N1CC(c2nc3ccccc3n2Cc2ccc(Cl)cc2)CC1=O (stereo not drawn)
IC50 [5]: 1.23 µM (active)

c1ccc2c(c1)c1c(c3ccccc32)CN2CCCC2C1 (stereo not drawn)
IC50 [6]: > 99 µM (inactive)
CC50 [7]: 100 µM (active)
IC50 [8]: 111 µM (active)

Cc1ccc(C(=O)N/N=C/C=C/c2ccccc2)o1
IC50 [9]: 134 µM (inactive)

O=c1c2ccccc2nc2n1C(CSCc1cccc(C(F)(F)F)c1)CS2 (stereo not drawn)
AC50 [10]: 1.68 µM (active)
IC50 (Protein Wnt-3a): 2.01 µM (active)
AC50 [11]: 3.22 µM (active)
AC50 (Cytochrome P450 2D6): 7.08 µM (inconclusive)
AC50 [12]: 0.863 µM (active)

Cc1cccc(C)c1NC(=O)C(c1cccc2ccccc12)n1c(=O)c(-c2ccco2)nc2ccccc21 (stereo not drawn)
IC50 [13]: 2.56 µM (active)

CCCOC(=O)c1cccc(Nc2nc(-c3cccnc3)nc3ccccc23)c1
EC50 [14]: > 40 µM (inactive)
IC50 [15]: > 20 µM (inactive)
EC50 (Melanocortin receptor 4): > 89.3 µM (inactive)
EC50 [16]: 9.22 µM (active)
EC50 [17]: 0.534 µM (active)

Nc1nc(CN2CCCCCC2)nc(Nc2ccccc2)n1
AC50 [18]: 133 µM (active)

N#Cc1ccc(-c2nc3ccc(Cl)cn3c2Cc2ccccc2C(F)(F)F)cc1
IC50 [19]: 9.87 µM (active)
IC50 [20]: 8.47 µM (active)

CCCCn1c(O)c(/N=N/c2ccccn2)c2ccccc21
EC50 [21]: 23.9 µM (inactive)

CCN(c1ccccc1)S(=O)(=O)c1ccc(C(=O)Nc2nnc(CSC)o2)cc1
EC50 (Streptokinase A): > 150 µM (not active)
EC50 (Streptococcus): 15 µM (active)
IC50 [22]: 8.64 µM (active)
EC50 [23]: 3.5 µM (active)

— ChEMBL document CHEMBL1201862, “PubChem BioAssay data set” (2004)
